Measurements published in publication PMC5520492, “Inhibition of DNA2 nuclease as a therapeutic strategy targeting replication stress in cancer cells” (Oncogenesis, 2017).

Assays:
Bloom syndrome (BLM) = target: T1, Bloom syndrome (BLM) (Homo sapiens, UniProt P54132); test: dsDNA unwinding by BLM; format: biochemical; conditions: 10 µM
T1 construct: made in house
Procedure: Figure S2. […] (a) Analysis of 5’ flap processing by hDNA2 in presence of the compounds at the indicated concentration. DNA2 (2.5 nM) was incubated with the Y DNA substrate (5 nM ends) and the indicated concentration of inhibitor. (b) Plots showing quantitation of the experiments shown in a. Plotted are the average data from three independent experiments with the error bars representing one standard deviation. (c) Analysis of dsDNA unwinding by BLM. BLM (4, 8 and 16 nM), RPA (100 nM) and internally radiolabelled dsDNA (0.5 nM ends) was incubated for 20 min at 37^ºC in presence of either DMSO or NSC-105808 (10 µM) and the products were resolved on a 1% agarose gel. (d) Plots showing quantitation of the experiments shown in c. Plotted are the average data from three independent experiments with the error bars representing one standard deviation. (e) Analysis of the degradation of a 2 kb internally labeled dsDNA (0.5 nM ends) by EXO1 (5 nM) in presence of NSC-105808 (10 µM). (f) Plot showing quantitation of the experiment in e. […] 100 nM hDNA2 was incubated with γ^32P-ATP in the presence of oligonucleotide ssDNA (200 nM) for 20 minutes at 37^ºC in presence of either DMSO or inhibitor (10 µM) and the products were resolved on a TLC plate. (h) Analysis of hDNA2 binding to DNA. […]

U2OS cells = test: RPA phosphorylation after camptothecin (immunofluorescence, chromatin fractionation); format: cell-based, human; conditions: NSC-105808 2 h, 0.3 μM; CPT 2 h, 1 μM
Procedure: Figure 4 NSC-105808 inhibits HR repair and DSB end resection. (a) Analysis of HR efficiency with the DR-green fluorescent protein (GFP) assay. Representative images of flow cytometry analysis and bar graph showing percentage of GFP cells from at least three independent experiments. Each value represents the mean±s.d. (b, c) Analysis of RPA phosphorylation in U2OS cells treated with NSC-105808 (2 h, 0.3 μM) and/or camptothecin (CPT; 2 h, 1 μM). (b) Representative images of cells subjected to immunofluorescent staining of p-RPA and bar graph showing percentage of cells with positive p-RPA staining from three independent experiments. Each value represents the mean±s.d. (c) Western blot analysis of chromatin fraction with the indicated antibodies. (d) Analysis of colony formation by FANCD2 (+/+) and FANCD2 (−/−) cells treated with cisplatin and/or NSC-105808. Each value is relative to the untreated control group of each cell line. The graph represents the mean±s.e.m. from three independent experiments. *P<0.01.
For the detection of DNA damage-induced p-RPA34 (S4/S8), immunofluorescent staining, and the preparation of chromatin fractions and western blot analyses were performed as described previously.[33], [48]

[1] = system: DT-PD77 cells with E6/E7 oncoprotein versus DT-PD59; test: MTT proliferation, DT-PD59 versus E6/E7 DT-PD77; format: cell-based, human; conditions: 48-h treatment
Procedure: (§1) Figure 5 Oncogene induction enhances sensitivity of cancer cells to NSC-105808. (a-e) Graphs showing proliferation of indicated cell lines in response to a 48-h treatment with the indicated concentrations of NSC-105808. Proliferation relative to cells treated with vehicle alone was determined by the 3-(4,5-dimethylthiazol-2-yl)-2,5-diphenyltetrazolium bromide (MTT) assay. Each value represents the mean±s.e.m. from three independent experiments. (a) Proliferation of control pancreatic epithelial cells DT-PD59 and transformed pancreatic cancer cells AsPC-1 and PANC-1. (b) Proliferation of normal breast epithelial cells MCF10A and breast cancer cells Hs578T and BT549. (c) Proliferation of MCF10A cells with or without H-Ras expression. H-Ras was induced with doxycycline (2 μg/ml). […]
(§2) Cell proliferation was measured by 3-(4,5-dimethylthiazol-2-yl)-2,5-diphenyltetrazolium bromide (Sigma) reduction (Supplementary Materials and Methods).
(§3) To determine the cell proliferation rate, 1000 cells/well were seeded in a 96-well plate in a total volume of 100 µl in triplicate in each experiment. […] Plates were read at 490 nm and 650 nm (background) in a
(§4) microplate reader (Molecular Devices). After the subtraction of background, cell viability was calculated as fold change relative to control cells.

[2] = system: MCF10AT1, MCF10-DCIS, MCF10CA1a versus MCF10A cells; test: MTT proliferation, MCF10A progression series; format: cell-based, human; conditions: 48-h treatment
Procedure: as §1, §2, §3, §4

T1 sequence (P54132 whole entry): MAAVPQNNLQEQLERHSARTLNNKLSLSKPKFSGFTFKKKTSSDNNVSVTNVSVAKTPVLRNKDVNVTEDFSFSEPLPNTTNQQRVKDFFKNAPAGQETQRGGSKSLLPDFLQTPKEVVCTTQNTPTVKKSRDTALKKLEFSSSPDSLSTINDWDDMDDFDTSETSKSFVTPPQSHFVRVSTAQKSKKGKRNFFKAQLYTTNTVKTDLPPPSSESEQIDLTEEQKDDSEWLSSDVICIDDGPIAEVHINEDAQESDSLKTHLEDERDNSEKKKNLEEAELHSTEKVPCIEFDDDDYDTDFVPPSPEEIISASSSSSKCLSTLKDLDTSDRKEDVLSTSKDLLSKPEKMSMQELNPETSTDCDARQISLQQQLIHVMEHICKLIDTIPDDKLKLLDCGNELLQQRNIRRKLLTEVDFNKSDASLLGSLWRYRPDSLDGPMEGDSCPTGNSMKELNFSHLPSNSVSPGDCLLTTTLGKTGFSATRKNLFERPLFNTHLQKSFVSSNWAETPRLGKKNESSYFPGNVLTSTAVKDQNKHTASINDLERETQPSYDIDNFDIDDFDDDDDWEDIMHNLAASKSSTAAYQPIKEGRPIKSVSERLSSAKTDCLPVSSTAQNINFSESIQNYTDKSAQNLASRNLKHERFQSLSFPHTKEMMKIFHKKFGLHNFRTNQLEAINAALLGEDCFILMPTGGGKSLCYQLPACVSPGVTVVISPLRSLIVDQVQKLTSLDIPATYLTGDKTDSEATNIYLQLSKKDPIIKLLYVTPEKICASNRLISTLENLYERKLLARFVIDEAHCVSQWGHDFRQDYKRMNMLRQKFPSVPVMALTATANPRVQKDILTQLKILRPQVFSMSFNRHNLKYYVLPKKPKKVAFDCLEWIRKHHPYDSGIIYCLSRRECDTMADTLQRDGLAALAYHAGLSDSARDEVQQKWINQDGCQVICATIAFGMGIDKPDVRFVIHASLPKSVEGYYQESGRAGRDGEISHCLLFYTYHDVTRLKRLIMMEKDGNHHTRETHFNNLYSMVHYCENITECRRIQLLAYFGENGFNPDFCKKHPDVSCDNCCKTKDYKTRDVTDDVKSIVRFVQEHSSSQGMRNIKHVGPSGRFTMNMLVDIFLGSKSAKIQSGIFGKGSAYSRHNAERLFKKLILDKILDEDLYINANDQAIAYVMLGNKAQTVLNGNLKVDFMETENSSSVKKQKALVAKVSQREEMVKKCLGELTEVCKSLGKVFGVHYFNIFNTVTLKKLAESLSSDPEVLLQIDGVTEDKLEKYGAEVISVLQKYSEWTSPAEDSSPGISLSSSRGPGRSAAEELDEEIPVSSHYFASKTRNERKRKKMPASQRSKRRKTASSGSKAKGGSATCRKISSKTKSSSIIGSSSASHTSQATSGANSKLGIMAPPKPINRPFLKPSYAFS

**Q.** For `NC1=C(Br)C(=O)c2ncccc2C1=O` [NSC-105808, 6-amino-7-bromoquinoline-5,8-dione], which “Effect on ability of Bloom syndrome to unwind DNA” value (Bloom syndrome (BLM)) is on record?
**A.** no effect

**Q.** What about the “Accumulation of camptothecin-induced p-RPA” value (U2OS cells) of the same compound?
**A.** significantly attenuated

**Q.** And the “γ-H2AX level in chromatin fraction” value (U2OS cells)?
**A.** concomitant enhancement

**Q.** And the “Sensitivity in cells with E6/E7 oncoprotein-induced replication stress” value [1]?
**A.** higher

**Q.** And the “Sensitivity of cell lines with oncogene activation compared with MCF10A control” value [2]?
**A.** more sensitive
